Data published in ChEMBL document CHEMBL4346660, “Cryptolepine and aromathecin based mimics as potent G-quadruplex-binding, DNA-cleavage and anticancer agents: Design, synthesis and DNA targeting-induced apoptosis” (Eur J Med Chem, 2019).
Active and inactive are the calls of the source. The rule behind the calls is not given here.

Tests used:
MGC-803 [1] = assay: Antiproliferative activity against human MGC803 cells assessed as inhibition of cell proliferation at 10 uM measured for 12 to 72 hrs by MTT assay relative to control; format: functional
T-24 = assay: Antiproliferative activity against human T24 cells assessed as reduction in cell viability incubated for 48 hrs by MTT assay; format: functional, cell-based; conditions: T-24, 48 h
MGC-803 [2] = assay: Antiproliferative activity against human MGC803 cells assessed as reduction in cell viability incubated for 48 hrs by MTT assay; format: functional, cell-based; conditions: MGC-803, 48 h
L02 = assay: Cytotoxicity against human HL7702 cells assessed as reduction in cell viability incubated for 48 hrs by MTT assay; format: cell-based; conditions: L02, 48 h
Calf thymus DNA [3] = assay: Inhibition of ethidium bromide binding to calf thymus DNA assessed as Stern-Volmer quenching constant by fluorescence spectra analysis; format: nucleic-acid assay; conditions: Bos taurus
DNA = assay: Binding affinity to Escherichia coli supercoiled pBR322 DNA assessed as DNA intercalation at 0.5 to 10 uM after 3 hrs by ethidium bromide staining-based agarose gel electrophoresis analysis; format: nucleic-acid assay
MGC-803 [4] = assay: Induction of DNA damage in human MGC803 cells assessed as increase in gamma-H2AX expression at 2.5 uM after 24 hrs by Western blot analysis; format: functional, cell-based
Quadruplex DNA [5] = assay: Binding affinity to human Pu27 G-quadruplex DNA assessed as Stern-Volmer quenching constant by fluorometric titration assay; format: nucleic-acid assay
Calf thymus DNA [6] = assay: Binding affinity to calf thymus DNA at 10 uM incubated for 5 mins by CD spectroscopy; format: nucleic-acid assay; conditions: Bos taurus
Quadruplex DNA [7] = assay: Binding affinity to human HTG21 G-quadruplex DNA at 10 uM incubated for 5 mins by CD spectroscopy; format: nucleic-acid assay
MGC-803 [8] = assay: Cell cycle arrest in human MGC803 cells assessed as accumulation of cells at G2/M phase at 1 uM incubated for 48 hrs by propidium iodide staining-based flow cytometry (reference value: 13.07%); format: functional
MGC-803 [9] = assay: Cell cycle arrest in human MGC803 cells assessed as accumulation of cells at G2/M phase at 2.5 uM incubated for 48 hrs by propidium iodide staining-based flow cytometry (reference value: 13.07%); format: functional
MGC-803 [10] = assay: Cell cycle arrest in human MGC803 cells assessed as accumulation of cells at G1 phase at 0.5 uM incubated for 48 hrs by propidium iodide staining-based flow cytometry (reference value: 53.96%); format: functional
MGC-803 [11] = assay: Cell cycle arrest in human MGC803 cells assessed as down regulation of cyclin B1 expression at 0.5 to 2.5 uM incubated for 24 hrs by Western blot analysis; format: functional, cell-based
MGC-803 [12] = assay: Cell cycle arrest in human MGC803 cells assessed as increase in p21 expression at 0.5 to 2.5 uM incubated for 24 hrs by Western blot analysis; format: functional, cell-based
MGC-803 [13] = assay: Cell cycle arrest in human MGC803 cells assessed as increase in p27 expression at 0.5 to 2.5 uM incubated for 24 hrs by Western blot analysis; format: functional, cell-based
MGC-803 [14] = assay: Induction of apoptosis in human MGC803 cells assessed as viable cells at 1 uM incubated for 24 hrs by Annexin V-FITC/propidium iodide staining based flow cytometry (reference value: 96.53+/-2.11%); format: functional; conditions: MGC-803, 24 h, read-out: Activity
MGC-803 [15] = assay: Induction of apoptosis in human MGC803 cells assessed as early apoptotic cells at 2.5 uM incubated for 24 hrs by Annexin V-FITC/propidium iodide staining based flow cytometry (reference value: 0.97 +/- 0.10 %); format: functional
MGC-803 [16] = assay: Induction of apoptosis in human MGC803 cells assessed as late apoptotic cells at 1 uM incubated for 24 hrs by Annexin V-FITC/propidium iodide staining based flow cytometry (reference value: 0.69 +/- 0.05 %); format: functional
MGC-803 [17] = assay: Induction of apoptosis in human MGC803 cells assessed as necrotic cells at 0.5 uM incubated for 24 hrs by Annexin V-FITC/propidium iodide staining based flow cytometry (reference value: 1.81 +/- 0.09 %); format: functional
MGC-803 [18] = assay: Induction of apoptosis in human MGC803 cells assessed as increase in Bim levels at 0.5 to 2.5 uM after 24 hrs by Western blot analysis; format: functional, cell-based
MGC-803 [19] = assay: Induction of apoptosis in human MGC803 cells assessed as decrease in Bcl-2 expression at 0.5 to 2.5 uM after 24 hrs by Western blot analysis; format: functional, cell-based
MGC-803 [20] = assay: Induction of apoptosis in human MGC803 cells assessed as decrease in Bcl-xL expression at 0.5 to 2.5 uM after 24 hrs by Western blot analysis; format: functional, cell-based
MGC-803 [21] = assay: Induction of apoptosis in human MGC803 cells assessed as activated caspase-3 level at 2.5 uM after 24 hrs by FITC staining-based flow cytometric analysis (Rvb= 3.46%); format: functional
MGC-803 [22] = assay: Induction of apoptosis in human MGC803 cells assessed as activated caspase-9 level at 2.5 uM after 24 hrs by FITC staining-based flow cytometric analysis (Rvb= 3.14%); format: functional
MGC-803 [23] = assay: Induction of mitochondrial membrane depolarization in human MGC803 cells at 1 uM incubated for 24 hrs by JC-1 dye-based flow cytometric analysis (Rvb 3.37%); format: functional
MGC-803 [24] = assay: Induction of apoptosis in human MGC803 cells assessed as increase in intracellular calcium release incubated for 24 hrs by […] AM dye-based flow cytometric analysis; format: functional, cell-based
MGC-803 [25] = assay: Antitumor activity against human MGC803 cells xenografted in BALB/C mouse assessed as tumor growth inhibition at 12 mg/kg, ip administered every other day for 2 weeks measured during compound dosing relative to control; format: functional; conditions: MGC-803, ip, 336 h
MGC-803 [26] = assay: Cell cycle arrest in human MGC803 cells assessed as accumulation of cells at G2/M phase incubated for 48 hrs by propidium iodide staining-based flow cytometry; format: functional
MGC-803 [27] = assay: Cell cycle arrest in human MGC803 cells assessed as accumulation of cells at G1 phase at 1 uM incubated for 48 hrs by propidium iodide staining-based flow cytometry (reference value: 53.96%); format: functional
MGC-803 [28] = assay: Induction of mitochondrial membrane potential loss in human MGC803 cells at 0.5 to 2.5 uM measured after 24 by JC1 staining-based microscopic analysis; format: functional, cell-based

`CN(C)CCCNc1c2c(nc3ccc(F)cc13)-c1ccccc1C2` showed an inhibition at 10 µM (MGC-803 [1]) of 40 to 95%, an IC50 (T-24) of 840 nM and an IC50 (MGC-803 [2]) of 970 nM. For the same compound, the IC50 (L02) was 1570 nM, the Kq (Calf thymus DNA [3]) was 5.92 ×10⁴ No_unit and the Activity (DNA) was “Active”. The Activity (MGC-803 [4]) was “Active”, the Kq (Quadruplex DNA [5]) was 1.5 ×10⁷ No_unit and the Activity (Calf thymus DNA [6]) was “Active”. The Activity (Quadruplex DNA [7]) was “Active”, the Activity (MGC-803 [8]) was 23.02% and the Activity (MGC-803 [9]) was 31.82%. For the same compound, the Activity (MGC-803 [10]) was 51.5%, the Activity (MGC-803 [11]) was “Active” and the Activity (MGC-803 [12]) was “Active”. For the same compound, the Activity (MGC-803 [13]) was “Active”, the viability at 1 µM (MGC-803 [14]) was 58.3% and the Activity (MGC-803 [15]) was 51.2%. The Activity (MGC-803 [16]) was 15%, the Activity (MGC-803 [17]) was 1.76% and the Activity (MGC-803 [18]) was “Active”. For the same compound, the Activity (MGC-803 [19]) was “Active”, the Activity (MGC-803 [20]) was “Active” and the Activity (MGC-803 [21]) was 45.1%. The Activity (MGC-803 [22]) was 46.9%, the Activity (MGC-803 [23]) was 89.1% and the Activity (MGC-803 [24]) was “Dose-dependent effect”. The inhibition in vivo at 12 mg/kg (MGC-803 [25]) was 53.2%, the Activity (MGC-803 [26]) was “Dose-dependent effect” and the Activity (MGC-803 [27]) was 24.11%. The Activity (MGC-803 [28]) was “Active”.
